Assay results: US11976072B2, “Diacylglycerol kinase modulating compounds” (priority 2021, dated 2024)
Read-outs that look alike come from different tables or passages of the source.

Key:
human DGKα = human DGKα (Homo sapiens, UniProt P23743); test: DGKα Biochemical Activity Assay (ADP-Glo);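 note: luminescent detection of ADP produced as DGKα phosphorylates DAG to phosphatidic acid, IC50 from four-parameter nonlinear curve fit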
[1] = test system: Jurkat NFκB-luciferase cells; test: Jurkat NFκB-Luciferase Assay; format: cell-based; conditions: Homo sapiens
Outline: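 Jurkat NFκB-luciferase reporter cells at 1 million cells/ml in RPMI with 10% FBS were added to antibody-coated, compound-containing wells. Luciferase activity read by One-Glo Ex luminescence 7 minutes after reagent addition.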

[2] = recombinant DGKα 1 nM, 100 μM ATP, 18:1 DAG/POPS/octylglucoside micelles, 1 hour at 25° C., geometric mean, read-out: HTBS DGKa 1X ATP KM IC50
[3] = Jurkat NFκB-luciferase cells activated with anti-CD3 antibody (OKT3), 2.5 hrs at 37° C., geometric mean, read-out: DGK NFKb Luciferase EC50
[4] = Jurkat, […], read-out: DGK NFKb Luciferase EC50 (nM)

Chain of human DGKα (P23743 whole entry): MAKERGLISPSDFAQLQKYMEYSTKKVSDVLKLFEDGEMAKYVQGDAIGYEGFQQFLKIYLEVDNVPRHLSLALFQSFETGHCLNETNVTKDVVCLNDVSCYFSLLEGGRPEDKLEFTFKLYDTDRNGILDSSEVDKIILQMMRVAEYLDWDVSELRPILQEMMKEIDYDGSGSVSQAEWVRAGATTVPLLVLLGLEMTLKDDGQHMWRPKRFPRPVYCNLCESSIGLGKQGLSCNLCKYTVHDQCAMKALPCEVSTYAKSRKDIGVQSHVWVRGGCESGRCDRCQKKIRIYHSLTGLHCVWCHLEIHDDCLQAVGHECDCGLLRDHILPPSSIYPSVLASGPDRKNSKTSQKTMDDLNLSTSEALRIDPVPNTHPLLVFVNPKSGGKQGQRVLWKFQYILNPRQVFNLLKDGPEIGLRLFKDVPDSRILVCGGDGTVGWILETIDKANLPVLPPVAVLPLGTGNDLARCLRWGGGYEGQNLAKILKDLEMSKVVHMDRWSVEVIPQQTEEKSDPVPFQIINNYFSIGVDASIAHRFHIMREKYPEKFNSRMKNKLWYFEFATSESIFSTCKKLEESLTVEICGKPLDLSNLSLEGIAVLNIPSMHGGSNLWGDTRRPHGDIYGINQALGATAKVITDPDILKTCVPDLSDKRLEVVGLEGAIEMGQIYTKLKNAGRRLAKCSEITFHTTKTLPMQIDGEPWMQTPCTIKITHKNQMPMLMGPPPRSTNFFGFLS

| SMILES | IC50 (human DGKα; [2]) [nM] | EC50 [1, 3] [nM] | IC50 (human DGKα) [nM] | EC50 [1, 4] [nM] |
| --- | --- | --- | --- | --- |
| Cc1nnc2nc(N3CCCc4c(C#CC5(CO)CC5)cccc43)c3cc(F)ccc3n12 [Example 234, [1-[2-[1-(7-fluoro-1-methyl-[1,2,4]triazolo[4,3-a]quinazolin-5-yl)-3,4-dihydro-2H-quinolin-5-yl]ethynyl]cyclopropyl]methanol] | 3.86 | 23.3 | – | – |
| Cc1nnc2nc(N3CCOCc4c(C#CC(C)(C)C(F)(F)F)cccc43)c3c(F)c(F)ccc3n12 [Example 207, 1-(6,7-Difluoro-1-methyl-[1,2,4]triazolo[4,3-a]quinazolin-5-yl)-6-(4,4,4-trifluoro-3,3-dimethyl-but-1-ynyl)-3,5-dihydro-2H-4,1-benzoxazepine] | 14.9 | 4.04 | – | – |
| Cc1nnc2nc(N3CCN(C)Cc4c(C#CC(C)(C)C#N)cccc43)c3c(F)cccc3n12 [compound 163] | – | 28.4 | 17.1 | – |
| Fc1ccc2c(c(N3CCCc4c(C#CC5CC(F)(F)C5)cncc43)nc3nncn32)c1F [Example 14, 5-(5-((3,3-difluorocyclobutyl)ethynyl)-3,4-dihydro-1,7-naphthyridin-1(2H)-yl)-6,7-difluoro-[1,2,4]triazolo[4,3-a]quinazoline] | 8.19 | 1.4 | – | – |
| Cc1nnc2nc(N(CC(F)F)c3cccc(C#CC4(C(F)(F)F)CC4)c3F)c3c(F)cccc3n12 [Example 54, N-(2,2-difluoroethyl)-6-fluoro-N-[2-fluoro-3-[2-[1-(trifluoromethyl)cyclopropyl]ethynyl]phenyl]-1-methyl-[1,2,4]triazolo[4,3-a]quinazolin-5-amine] | 32.8 | 1.64 | – | – |
| Cc1nnc2nc(N3CCOCc4c(C#CC(C)(C)NC(=O)c5cn(C)nc5C(F)(F)F)cccc43)c3c(F)cccc3n12 [Example 138, N-(4-(1-(6-fluoro-1-methyl-[1,2,4]triazolo[4,3-a]quinazolin-5-yl)-1,2,3,5-tetrahydrobenzo[e][1,4]oxazepin-6-yl)-2-methylbut-3-yn-2-yl)-1-methyl-3-(trifluoromethyl)-1H-pyrazole-4-carboxamide] | 28.9 | 43.3 | – | – |
| Cc1nnc2nc(N3CCCc4c(C#CC5CCC5)cccc43)c3c(F)cccc3n12 [Example 246, 5-[5-(2-cyclobutylethynyl)-3,4-dihydro-2H-quinolin-1-yl]-6-fluoro-1-methyl-[1,2,4]triazolo[4,3-a]quinazoline] | 39.3 | 0.272 | – | – |
| Cc1nnc2nc(N3CCOCc4c3ccnc4C#CC3(C(C)(F)F)CC3)c3cc(F)ccc3n12 [Example 133, 6-((1-(1,1-difluoroethyl)cyclopropyl)ethynyl)-1-(7-fluoro-1-methyl-[1,2,4]triazolo[4,3-a]quinazolin-5-yl)-1,2,3,5-tetrahydropyrido[4,3-e][1,4]oxazepine] | 15.1 | 5.69 | – | – |
| Cc1nnc2nc(N3CCCCc4c(C#CC(C)(C)NC(=O)C5(C(F)(F)F)CC5)cccc43)c3c(F)cccc3n12 [Example 183, N-(4-(1-(6-fluoro-1-methyl-[1,2,4]triazolo[4,3-a]quinazolin-5-yl)-2,3,4,5-tetrahydro-1H-benzo[b]azepin-6-yl)-2-methylbut-3-yn-2-yl)-1-(trifluoromethyl)cyclopropane-1-carboxamide] | 28.4 | 11.8 | – | – |
| Cc1nnc2nc(N(CC(F)F)c3ccnc(C#CC4CC4)c3)c3c(F)c(F)ccc3n12 [Example 81, N-(2-(cyclopropylethynyl)pyridin-4-yl)-N-(2,2-difluoroethyl)-6,7-difluoro-1-methyl-[1,2,4]triazolo[4,3-a]quinazolin-5-amine] | 10.4 | 30.7 | – | – |
| Cc1nnc2nc(N3CCN(C)Cc4c(C#CC5(C(F)(F)F)CC5)cccc43)c3cc(F)ccc3n12 [Example 172, 7-fluoro-1-methyl-5-[4-methyl-6-[2-[1-(trifluoromethyl)cyclopropyl]ethynyl]-3,5-dihydro-2H-1,4-benzodiazepin-1-yl]-[1,2,4]triazolo[4,3-a]quinazoline] | 8.77 | 3.23 | – | – |
| Cc1cnc(C(C)(C)C#Cc2cccc3c2CCCN3c2nc3nnc(C)n3c3cccc(F)c23)o1 [Example 72, 2-(4-(1-(6-fluoro-1-methyl-[1,2,4]triazolo[4,3-a]quinazolin-5-yl)-1,2,3,4-tetrahydroquinolin-5-yl)-2-methylbut-3-yn-2-yl)-5-methyloxazole] | 19.8 | 2.2 | – | – |
| Fc1cc(F)c2c(c1)c(N1CCCc3c(C#CC4(C(F)F)CC4)cccc31)nc1nncn12 [Example 119] | 2.13 | 2.86 | – | – |
| Cc1nnc2nc(N3CCCc4c(C#CC5(C(F)(F)F)CC5)cccc43)c3c(Cl)c(F)ccc3n12 [Example 37, 6-chloro-7-fluoro-1-methyl-5-[5-[2-[1-(trifluoromethyl)cyclopropyl]ethynyl]-3,4-dihydro-2H-quinolin-1-yl]-[1,2,4]triazolo[4,3-a]quinazoline] | 64.8 | 1.88 | – | – |
| Cc1nnc2nc(N3CCCc4c(C#CC5(O)C[C@H]6C[C@H]6C5)cccc43)c3c(F)cccc3n12 (stereo partly drawn) [Example 199, (1R,5S)-3-((1-(6-fluoro-1-methyl-[1,2,4]triazolo[4,3-a]quinazolin-5-yl)-1,2,3,4-tetrahydroquinolin-5-yl)ethynyl)bicyclo[3.1.0]hexan-3-ol] | 3.83 | – | – | 1.62 |
| Cc1nnc2nc(N3c4cccc(C#CC(C)(C)O)c4CCC3C)c3c(F)cccc3n12 (stereo not drawn) [Example 59, 4-(1-(6-fluoro-1-methyl-[1,2,4]triazolo[4,3-a]quinazolin-5-yl)-2-methyl-1,2,3,4-tetrahydroquinolin-5-yl)-2-methylbut-3-yn-2-ol] | 11.2 | 11.7 | – | – |
| Fc1cccc2c1c(N1CCCc3c(C#CC4(C(F)F)CC4)cncc31)nc1nncn12 [Example 19, 5-(5-((1-(difluoromethyl)cyclopropyl)ethynyl)-3,4-dihydro-1,7-naphthyridin-1(2H)-yl)-6-fluoro-[1,2,4]triazolo[4,3-a]quinazoline] | 21.3 | 1.53 | – | – |
| Cc1nnc2nc(N3CCCc4c(C#Cc5ccn[nH]5)cccc43)c3cc(F)ccc3n12 [Example 224, 7-fluoro-1-methyl-5-[5-[2-(1H-pyrazol-5-yl)ethynyl]-3,4-dihydro-2H-quinolin-1-yl]-[1,2,4]triazolo[4,3-a]quinazoline] | 15.1 | 8.38 | – | – |
| Cc1nnc2nc(N3CCOCc4c(C#CC(C)(C)C(F)F)cccc43)c3c(F)cccc3n12 [Example 190, 6-(4,4-Difluoro-3,3-dimethyl-but-1-ynyl)-1-(6-fluoro-1-methyl-[1,2,4]triazolo[4,3-a]quinazolin-5-yl)-3,5-dihydro-2H-4,1-benzoxazepine] | 6.91 | 1.46 | – | – |
| Cc1nnc2nc(N3CCOCc4c(C#CC(C)(C)C(F)(F)F)cccc43)c3cc(F)ccc3n12 [Example 210] | 5.88 | 0.657 | – | – |
| CC(C)(O)C#Cc1cc(F)cc2c1CCCN2c1nc2nncn2c2c(F)cc(F)cc12 [Example 114] | 6.76 | 12.5 | – | – |
| CC1(C#Cc2cccc3c2CCCN3c2nc3nncn3c3c(F)ccc(F)c23)CC1 [Example 117] | 14.8 | 1.32 | – | – |
| Cc1nnc2nc(N3CCCc4c(N5CCN(C(=O)C(F)(F)F)CC5)cccc43)c3c(F)cccc3n12 [Example 159] | 333 | 16.5 | – | – |
| CC(C)(O)C#Cc1cc(N(CC(F)F)c2nc3nncn3c3c(Cl)cc(F)cc23)ccn1 [Example 60, 4-(4-((9-chloro-7-fluoro-[1,2,4]triazolo[4,3-a]quinazolin-5-yl)(2,2-difluoroethyl)amino)pyridin-2-yl)-2-methylbut-3-yn-2-ol] | 69.2 | 532 | – | – |
| Cc1nnc2nc(N3CCCCc4c(C#CC5(C(F)(F)F)CC5)cncc43)c3cc(F)ccc3n12 [Example 3, 7-fluoro-1-methyl-5-(6-((1-(trifluoromethyl)cyclopropyl)ethynyl)-2,3,4,5-tetrahydro-1H-pyrido[3,4-b]azepin-1-yl)-[1,2,4]triazolo[4,3-a]quinazoline] | 35.9 | 1.86 | – | – |
| Cc1nnc2nc(N(CC(F)F)c3ccnc(C#CC(C)(C)C(F)(F)F)c3F)c3c(F)c(F)ccc3n12 [Example 80, N-(2,2-difluoroethyl)-6,7-difluoro-N-(3-fluoro-2-(4,4,4-trifluoro-3,3-dimethylbut-1-yn-1-yl)pyridin-4-yl)-1-methyl-[1,2,4]triazolo[4,3-a]quinazolin-5-amine] | 15.1 | 2.15 | – | – |
| CC1(C#Cc2cccc3c2COCCN3c2nc3nncn3c3c(F)ccc(F)c23)CC1 [Example 113] | 1.44 | 0.9 | – | – |
| COc1ccc(C#Cc2cccc3c2COCCN3c2nc3nnc(C)n3c3cccc(F)c23)cn1 [Example 222, 1-(6-fluoro-1-methyl-[1,2,4]triazolo[4,3-a]quinazolin-5-yl)-6-((6-methoxypyridin-3-yl)ethynyl)-1,2,3,5-tetrahydrobenzo[e][1,4]oxazepine] | 6.29 | 0.718 | – | – |
| Cc1nnc2nc(N3CCN(C)Cc4c(C#CC(C)(C)O)cccc43)c3cc(F)ccc3n12 [Example 170, 4-[1-(7-fluoro-1-methyl-[1,2,4]triazolo[4,3-a]quinazolin-5-yl)-4-methyl-3,5-dihydro-2H-1,4-benzodiazepin-6-yl]-2-methyl-but-3-yn-2-ol] | 51 | – | – | 358 |
| Cc1nnc2nc(N3CCOCc4c(C#CC(C)(C)NC(=O)C5(C(C)(F)F)CC5)cccc43)c3c(F)cccc3n12 [Example 181, 1-(1,1-Difluoroethyl)-N-[3-[1-(6-fluoro-1-methyl-[1,2,4]triazolo[4,3-a]quinazolin-5-yl)-3,5-dihydro-2H-4,1-benzoxazepin-6-yl]-1,1-dimethyl-prop-2-ynyl]cyclopropanecarboxamide] | 4.06 | 12.4 | – | – |
